Among the test systems are A498; CAKI-1; CCRF-CEM; HCT-116; HCT-15; K562; MOLT-4; Malme-3M; NCI-H226; PC-3; SK-MEL-28; SK-MEL-2; SK-OV-3; SNB-75; SR; TK-10; U-251; UACC-257; UACC-62; NCI-H460.
Common to all, as to assay: inhibition of tumour cell growth, NCI panel, 48 h

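Tested at 5 concentrations; 48 h exposure; 96-well plates; endpoints linearly interpolated, else capped at highest concentration. Here, GI50 denotes the concentration required for 50% inhibition of growth.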 Calls of active or inactive are those of the source. Cut-off read from the data, not from the text of the source: active = GI50 up to about 1.1 µM and inactive = higher.

`O=C1c2cc([N+](=O)[O-])ccc2-c2ccc3c4ccc5c6c(ccc(c7ccc1c2c73)c64)C(=O)c1cc([N+](=O)[O-])ccc1-5`: the GI50 in the assay on A498 is 4.03 µM (inactive); with CAKI-1, > 100 µM (inactive); with CCRF-CEM it was > 100 µM (inactive); with HCT-116 it was > 100 µM (inactive); in the assay on HCT-15, more than 100 µM; in the assay on K562 it was > 100 µM (inactive). For the same compound, the GI50 in the assay on MOLT-4, with Malme-3M, in the assay on NCI-H226, in the assay on PC-3, with SK-MEL-28 and in the assay on SK-MEL-2 was > 100 µM (inactive) throughout. Further, the GI50 with SK-OV-3, with SNB-75, in the assay on SR, in the assay with TK-10, in the assay on U-251 and with UACC-257 was > 100 µM (inactive) each time. The GI50 in the assay with UACC-62 was > 100 µM (inactive).

As to `O=C1c2cccc3cc([N+](=O)[O-])cc(c23)C(=O)N1c1ccc(OCCN2CCCC2)cc1`, the GI50 in the assay on A498 was 12.4 µM (inactive); in the assay with CAKI-1, > 100 µM (inactive); in the assay on CCRF-CEM, 18.6 µM (inactive); with HCT-116, 6.79 µM (inactive); with HCT-15, 14.2 µM; with MOLT-4 it was 4.85 µM (inactive). Besides, the GI50 with Malme-3M was 15 µM (inactive); in the assay on NCI-H226, 9.35 µM (inactive); in the assay with NCI-H460, 3.26 µM (inactive); with PC-3, 22.2 µM (inactive); with SK-MEL-28, 23 µM (inactive); in the assay on SK-MEL-2 it was 24.5 µM (inactive). Also, the GI50 with SNB-75 is 22 µM (inactive); in the assay with SR, 2.23 µM (inactive); in the assay with TK-10 it was 22.4 µM (inactive); in the assay on U-251 it was 16.1 µM (inactive); in the assay with UACC-257, 16.8 µM (inactive).

Turning to `Cc1ccc(N2CCN(CCC(=O)O)CC2)cc1`, the GI50 was > 100 µM (inactive) in the assay on A498; > 100 µM (inactive) in the assay on CAKI-1; 52.7 µM (inactive) with CCRF-CEM; > 100 µM (inactive) in the assay with HCT-116; more than 100 µM with HCT-15; 2.94 µM (inactive) in the assay with K562. Moreover, the GI50 in the assay on Malme-3M, with NCI-H226, with NCI-H460, in the assay on PC-3, in the assay on SK-MEL-28 and with SK-MEL-2 was > 100 µM (inactive) throughout. Moreover, the GI50 with SK-OV-3 is > 100 µM (inactive); in the assay with SNB-75 it was > 100 µM (inactive); in the assay on SR, 16.9 µM (inactive); in the assay with TK-10, > 100 µM (inactive); with U-251, > 100 µM (inactive); in the assay on UACC-257, > 100 µM (inactive). Moreover, the GI50 with UACC-62 is > 100 µM (inactive).

For the compound `O=C(O)CC(NC(=O)/C(=C/c1ccccc1O)NC(=O)c1ccccc1)C(=O)O` (stereo not drawn), the GI50 in the assay on A498 was 50.5 µM (inactive); with CAKI-1, 34.7 µM (inactive); in the assay on CCRF-CEM, 33.9 µM (inactive); with HCT-116 it was > 100 µM (inactive); with HCT-15, 59.4 µM; with K562, 74.1 µM (inactive). Also, the GI50 with MOLT-4 was 52.4 µM (inactive); in the assay on Malme-3M, 61.7 µM (inactive); in the assay with NCI-H226, > 100 µM (inactive); in the assay with PC-3, 86.1 µM (inactive); in the assay with SK-MEL-28, > 100 µM (inactive); in the assay on SK-MEL-2 it was > 100 µM (inactive). Further, the GI50 in the assay on SK-OV-3 was > 100 µM (inactive); in the assay on SNB-75 it was 88.1 µM (inactive); in the assay with SR, 29.8 µM (inactive); in the assay with TK-10, > 100 µM (inactive); in the assay with U-251, 54.7 µM (inactive); in the assay with UACC-257, > 100 µM (inactive). Further, the GI50 in the assay with UACC-62 was 42.5 µM (inactive).

For the compound `Cc1cc2ccccc2oc(=O)/c1=N\Nc1ccccc1`, the GI50 with A498 is > 100 µM (inactive); with CAKI-1, 37.4 µM (inactive); with CCRF-CEM it was > 100 µM (inactive); with HCT-116, 41.9 µM (inactive); with HCT-15, more than 100 µM; with K562, 14.5 µM (inactive). Besides, the GI50 with MOLT-4 was > 100 µM (inactive); with Malme-3M it was > 100 µM (inactive); in the assay on NCI-H226, 47.9 µM (inactive); with NCI-H460 it was 70 µM (inactive); with PC-3, 62.7 µM (inactive); with SK-MEL-28 it was > 100 µM (inactive). Moreover, the GI50 in the assay with SK-MEL-2 was > 100 µM (inactive); in the assay with SK-OV-3 it was 21.5 µM (inactive); in the assay with SNB-75, 20.9 µM (inactive); with SR, > 100 µM (inactive); in the assay on U-251, 39.9 µM (inactive); in the assay on UACC-257, > 100 µM (inactive). Besides, the GI50 with UACC-62 was 19.2 µM (inactive).

In the case of `N#CC1=C(S)N(C2OC(CO)C(O)C(O)C2O)C(c2ccccc2)=CC1c1ccco1` (stereo not drawn), the GI50 with A498 is 71.6 µM (inactive); in the assay with CAKI-1, 38.8 µM (inactive); in the assay on CCRF-CEM it was 88.9 µM (inactive); with HCT-116, 21.3 µM (inactive); in the assay on HCT-15 it was 68.9 µM; in the assay on K562, 42.7 µM (inactive). The GI50 is 35.2 µM (inactive) with MOLT-4; 81.7 µM (inactive) with Malme-3M; > 100 µM (inactive) in the assay with NCI-H226; 28.2 µM (inactive) in the assay on NCI-H460; 47.4 µM (inactive) in the assay with PC-3; 91.6 µM (inactive) in the assay with SK-MEL-28. Besides, the GI50 in the assay on SK-MEL-2 is 59 µM (inactive); in the assay with SNB-75 it was 16.6 µM (inactive); in the assay on SR it was 36.9 µM (inactive); in the assay with TK-10, 44.1 µM (inactive); in the assay on U-251, 19.8 µM (inactive); with UACC-257, 97.1 µM (inactive). In addition, the GI50 in the assay on UACC-62 is 16.3 µM (inactive).

Take `COc1cc(/C=C/C2=NN(c3cccc(S(=O)(=O)O)c3)C3(C2)SCC(=O)N3c2nc3ccccc3s2)cc(OC)c1OC` (stereo not drawn): the GI50 in the assay on A498 was 39.9 µM (inactive); in the assay with CAKI-1, 55.2 µM (inactive); in the assay on CCRF-CEM it was 28.8 µM (inactive); in the assay with HCT-116, 50.5 µM (inactive); in the assay with HCT-15 it was 51.9 µM; in the assay with K562, 41.1 µM (inactive). In addition, the GI50 with MOLT-4 is 32.9 µM (inactive); with Malme-3M, > 100 µM (inactive); in the assay with NCI-H226 it was 44.8 µM (inactive); in the assay with NCI-H460 it was 37.5 µM (inactive); with PC-3 it was 45.9 µM (inactive); in the assay on SK-MEL-28, > 100 µM (inactive). The GI50 was 42.1 µM (inactive) with SK-MEL-2; 63.5 µM (inactive) in the assay with SNB-75; 23.8 µM (inactive) in the assay on SR; 29.9 µM (inactive) with TK-10; 33 µM (inactive) in the assay with U-251; 95.7 µM (inactive) in the assay on UACC-257. Also, the GI50 in the assay on UACC-62 was 35.1 µM (inactive).

In the case of `CC(=O)OCC1OC(n2c3c(cc(C#N)c2=O)CCCCCC3)C(OC(C)=O)C(OC(C)=O)C1OC(C)=O` (stereo not drawn), the GI50 is > 100 µM (inactive) with A498; > 100 µM (inactive) with CAKI-1; > 100 µM (inactive) in the assay on CCRF-CEM; > 100 µM (inactive) in the assay on HCT-116; more than 100 µM in the assay on HCT-15; > 100 µM (inactive) in the assay with K562. In addition, the GI50 in the assay on MOLT-4, in the assay on Malme-3M, in the assay on NCI-H226, in the assay with NCI-H460, in the assay with PC-3 and in the assay on SK-MEL-28 was > 100 µM (inactive) in each case. In addition, the GI50 in the assay with SK-MEL-2 was > 100 µM (inactive); in the assay with SNB-75, 18.4 µM (inactive); with SR it was 96.6 µM (inactive); with TK-10, > 100 µM (inactive); in the assay on U-251, > 100 µM (inactive); with UACC-257 it was > 100 µM (inactive). In addition, the GI50 in the assay with UACC-62 was > 100 µM (inactive).

In the case of `COc1cc2cc(C(=O)N3CC(CCl)c4c3cc([N+](=O)[O-])c3ccccc43)[nH]c2c(OC)c1OC` (stereo not drawn), the GI50 in the assay on A498 was > 40.6 µM (inactive); with CAKI-1, 39.4 µM (inactive); with CCRF-CEM, 11.6 µM (inactive); with HCT-116 it was 27 µM (inactive); with K562 it was 15.3 µM (inactive); in the assay on MOLT-4, 13.8 µM (inactive). The GI50 with Malme-3M was 68.1 µM (inactive); with NCI-H226 it was > 100 µM (inactive); in the assay on NCI-H460, 4.68 µM (inactive); with PC-3, 10.9 µM (inactive); with SK-MEL-28, > 100 µM (inactive); in the assay with SK-MEL-2 it was > 100 µM (inactive). For the same compound, the GI50 in the assay on SK-OV-3 was > 48.5 µM (inactive); in the assay with SNB-75 it was 31.8 µM (inactive); with SR, 0.455 µM (active); in the assay on TK-10, > 100 µM (inactive); with U-251 it was 25.8 µM (inactive); with UACC-257, > 100 µM (inactive). For the same compound, the GI50 with UACC-62 is 15.9 µM (inactive).

Regarding `C[C@]12CC[C@@H]3c4ccc(O)cc4CC[C@H]3[C@@H]1CC[C@@H]2OC(=O)CCC1CCCC1` [ESTRADIOL CYPIONATE], the GI50 was 20.3 µM (inactive) with A498; 19.1 µM (inactive) in the assay on CAKI-1; 17.8 µM (inactive) in the assay on CCRF-CEM; 17.3 µM (inactive) in the assay on HCT-116; 16.2 µM in the assay with HCT-15; 17.2 µM (inactive) in the assay on K562. Further, the GI50 was 17.8 µM (inactive) with MOLT-4; 26.9 µM (inactive) in the assay with Malme-3M; 19.1 µM (inactive) with NCI-H226; 18.7 µM (inactive) in the assay on NCI-H460; 16.6 µM (inactive) with PC-3; 18.2 µM (inactive) with SK-MEL-28. For the same compound, the GI50 in the assay with SK-MEL-2 was 23.2 µM (inactive); in the assay with SK-OV-3, 19.4 µM (inactive); in the assay on SR it was 17.8 µM (inactive); with TK-10 it was 23.4 µM (inactive); in the assay with U-251, 18.7 µM (inactive); with UACC-257 it was 35 µM (inactive). Also, the GI50 in the assay with UACC-62 is 14.4 µM (inactive).

For the origin of these results see ChEMBL document CHEMBL1201862, “PubChem BioAssay data set” (2004).
